Laboratory results as given in patent US20260234165A1, “MACROCYCLIC COMPOUNDS, PREPARATION METHOD THEREFOR, AND USE THEREOF” (GENFLEET THERAPEUTICS (SHANGHAI) INC., priority 2004, published 2026).
Where a name gives a salt, the structure may show the parent alone.

Legend:
[1] = Pharmacokinetic study in rats; format: in vivo, Sprague-Dawley (SD) rats; conditions: Sprague-Dawley, rat, plasma, male SD rats
Source text: A total of 6 healthy adult male Sprague-Dawley (SD) rats were provided by Zhejiang Vital River Laboratory Animal Technology Co., Ltd. For each test compound, 6 healthy adult male SD rats were selected and randomly divided into 2 groups: an intravenous administration (IV) group and an intragastric administration (PO) group. The LC-MS/MS method was used to determine the drug concentrations in the plasma of rats at different time points after intravenous and intragastric administration of the test compounds. This experiment was intended to investigate the pharmacokinetic performance of the test compounds in rats and to evaluate the pharmacokinetic characteristics. Each drug used in the experiment was prepared from the test compound powder: An appropriate amount of test compound powder was weighed out, and appropriate amounts of DMSO, a 10% aqueous Solutol HS 15 solution, and a 6% aqueous HP-β-CD solution were sequentially added according to a volume ratio of 5:10:85. The mixture was vortexed and sonicated until clarification. The final concentration of the drug in the IV group was 0.5 mg/mL, and the final concentration of the drug in the PO group was 1 mg/mL; the concentrations could be adjusted according to actual needs. For the drug in the PO group of Z504, an appropriate amount of test compound powder was weighed out, and an appropriate amount of 0.5% MC+0.2% Tween 80 aqueous solution was added. The mixture was well mixed by vortexing to give a 1 mg/mL homogeneous suspension: the concentration could be adjusted according to actual needs.
All experimental rats were fasted overnight, and food intake was resumed 4 h after administration. For the rats in the IV group, the administration volume was set at 2 mL/kg, with Z554 and Z915 administered at a dose of 0.5 mg/kg and the other compounds at a dose of 1 mg/kg. For the rats in the PO group, the administration volume was 10 mL/kg and the dose was 10 mg/kg. The administration amount was adjusted according to the body weight of the rats on the day of administration. In the experiment, blood samples were collected from the rats in the IV group at multiple time points (0.0833 h, 0.25 h, 0.5 h, 1 h, 2 h, 4 h, 7 h, and 24 h) after administration, while blood samples were collected from the PO group at 0.25 h, 0.5 h, 1 h, 2 h, 4 h, 7 h, and 24 h after administration, with approximately 100 μL collected each time via the orbital blood collection method.
The blood samples were placed in centrifuge tubes containing EDTA-K2 and centrifuged at 8000 rpm for 4 min within 30 min to separate the supernatant plasma. The resulting plasma samples were stored at −20° C. for later use. For sample analysis, 20 μL of each of plasma samples and calibration standards was added to a 96-well plate, and 160 μL of acetonitrile containing 100 ng/mL tolbutamide was added. The samples were vortexed for 5 min for uniform mixing, and then centrifuged at 4000 rpm for 15 min. After the centrifugation was completed, 50 μL of supernatant was added to a 96-well plate containing 150 μL of deionized water. The plate was then sealed and shaken for uniform mixing. Sample analysis was performed by LC-MS/MS.
The sampling volume could be adjusted according to actual needs, but the final concentration should be kept unchanged.

[2] = Assay for stability in liver microsomes; format: in vitro ADME; conditions: human liver microsomes
Protocol: This experiment was intended to investigate the metabolic stability of the test compounds in human liver microsomes. The materials used in the experiment included 10 mM solutions of the test compounds and the control sample, human liver microsomes, and reduced nicotinamide adenine dinucleotide phosphate (NADPH) powder. In the experiment, a 100 mM potassium phosphate buffer was used as the buffer system.
The liver microsome working solution was prepared by diluting the liver microsome stock solution to 0.75 mg/mL using the 100 mM potassium phosphate buffer. Then, 5 μL of the 10 mM stock solution of the test compound was taken, and 195 μL of methanol was added. The mixture was well mixed to prepare a working solution A with a concentration of 0.25 mM.
Subsequently, the working solution A was diluted to 1.5 μM using the liver microsome working solution to prepare a compound-liver microsome mixed solution. Additionally, NADPH powder was dissolved in a 100) mM potassium phosphate buffer to prepare a 6 mM NADPH solution. The compound-liver microsome mixed solution was dispensed into a 96-well plate at 30 μL/well, with labeled time points of 0 min, 30 min, and 60 min. For 0-min samples, 180 μL of acetonitrile containing 100 ng/mL tolbutamide and 15 μL of the NADPH solution were added directly. The 96-well plate and the NADPH solution were then preheated under a 37° C. water bath for 5 min. After the preheating, 15 μL of the NADPH solution was added to each of the 30-min and 60-min sample wells. The plate was gently shaken for mixing and then incubated under the 37° C. water bath for the corresponding time. After the incubation was completed. 180 μL of acetonitrile containing 100 ng/mL tolbutamide was added to each sample well. The plate was sealed with a sealing film, shaken for 10 min (800 rpm/min), and then centrifuged for 15 min (4000 rpm). After the centrifugation, 50 μL of the supernatant was taken and added to a 96-well plate containing 150 μL of deionized water, and then the plate was sealed and shaken for 10 min (800 rpm) for uniform mixing. Subsequently sample analysis was performed using liquid chromatography-tandem mass spectrometry (LC-MS/MS).
The elimination rate constant and clearance rate of the test compound in liver microsomes were calculated using the following formulas: Remaining rate (%)=(peak area ratio of the compound to internal standard at any time point/peak area ratio of the compound to internal standard at 0 min)×100%,^4. T1/2=0.693/ke, where ke is the elimination rate constant and T1/2 is the half-life. Liver microsome intrinsic clearance rate (CLint(mic))=0.693/(T1/2× microsome protein concentration (mg/mL)). Liver intrinsic clearance rate (CLint(liver))=CLint(mic)×microsome protein-to-liver weight ratio (mg/g)×liver-to-body weight ratio (g/kg). In the formulas, CLint(mic) is the liver microsome intrinsic clearance rate, CLint(liver) is the liver intrinsic clearance rate, and CL(liver) is the liver clearance rate. For humans, the microsome protein-to-liver weight ratio was 45 mg/g, and the liver-to-body weight ratio was 20.7 g/kg.

[3] = system: p-ERK in AsPC-1 cells (KRAS G12D mutation); experiment: Cell p-ERK assay (HTRF) in AsPC-1 cells; format: cell-based, human; conditions: AsPC-1 cells, 3 h compound incubation, HTRF p-ERK T202/Y204; read-out: AsPC-1 p-ERK IC50
Outline: (§1)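 Seed 10000 AsPC-1 or 20000 NCI-H441 cells/well, overnight 37 °C/5% CO2. Cpd 3.16-fold series, 0.1% DMSO final, 3 h. Lyse 30 min, HTRF p-ERK (T202/Y204) Ab 4 h. IC50: 4-parameter fit of IR% normalised to DMSO and blank.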

[4] = system: AsPC-1 cells (KRAS G12D mutation); experiment: 3D cell proliferation assay (CellTiter Glo-3D), AsPC-1; format: cell-based, human; conditions: 3D cell proliferation (CellTiter Glo-3D), medium with 2% FBS, read-out: AsPC-1 AP IC50
Outline: (§2)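 NCI-H441 ([…] lung) and AsPC-1 (KRAS G12D pancreatic) cells, 800 per well, were seeded in RPMI-1640 with 2% FBS and dosed next day with 3.16-fold compound dilutions (0.1% DMSO). After 5 days at 37 °C, CellTiter-Glo 3D luminescence gave inhibition versus DMSO and blank; IC50 from four-parameter fit.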

[5] = system: p-ERK in NCI-H441 cells (KRAS G12V mutation); experiment: Cell p-ERK assay (HTRF) in NCI-H441 cells; format: cell-based, human; conditions: NCI-H441 cells, 3 h compound incubation, HTRF p-ERK T202/Y204; read-out: H441 p-ERK IC50
Outline: as §1

NCI-H441 cells = experiment: 3D cell proliferation assay (CellTiter Glo-3D), NCI-H441; format: cell-based, human; conditions: 3D cell proliferation (CellTiter Glo-3D), medium with 2% FBS, read-out: H441 AP IC50
Outline: as §2

Molecule	clearance ([1]; IV, dose 1 mg/kg)	AUC ([1]; PO (intragastric), dose 10 mg/kg, read-out: AUC)	Cmax ([1]; PO (intragastric), dose 10 mg/kg, read-out: Cmax)	half-life at 1 µM ([2]; NADPH, 37° C., 0/30/60 min)	CLint scaled at 1 µM ([2]; liver intrinsic clearance rate)	IC50 [3]	IC50 [4]	IC50 [5]	IC50 (NCI-H441 cells)
CCn1c(-c2cc(N3CCN(C)CC3)cnc2[C@H](C)OC)c2c3cc(ccc31)-c1csc(n1)C[C@H](NC(=O)[C@H]1[C@H](C)[C@@H]1C)C(=O)N1CCC[C@H](N1)C(=O)OCC(C)(C)C2 (atropisomer, axis not shown; (Ra)) [Control compound 1, (1r,2R,3S)—N-((6^3S,Z)-1^1-ethyl-(Ra)-1^2-(2-((S)-1-methoxyethyl)-5-(4-methylpiperazin-1-yl)pyridin-3-yl)-10,10-dimethyl-5,7-dioxo-6^1,6^2,6^3,6^4,6^5,6^6-hexahydro-1^1H-8-oxa-2(4,2)-thiazola-1(5,3)-indola-6(1,3)-pyridazinacycloundecaphane-4-yl)-2,3-dimethylcyclopropane-1-carboxamide, reference compound]	42.8 mL/min/kg	1220 ng·h/mL	365 ng/mL	11.8 min	136 mL/min/kg	–	–	–	–
CCn1c(-c2cc(C#CCN3CC(O)C3)cnc2[C@H](C)OC)c2c3cc(ccc31)-c1csc(n1)C[C@H](NC(=O)[C@H]1[C@H](C)[C@@H]1C)C(=O)N1CCC[C@H](N1)C(=O)OCC(C)(C)C2 [Compound Z1065, (2R,3S)—N-((6^3S,4S,Z)-1^1-ethyl-1^2-(5-(3-(3-hydroxyazetidin-1-yl)prop-1-yn-1-yl)-((S)-1-methoxyethyl)pyridin-3-yl)-10,10-dimethyl-5,7-dioxo-6^1,6^2,6^3,6^4,6^5,6^6-hexahydro-1^1H-8-oxo-2(4,2)-thiazola-1(5,3)-indola-6(1,3)-pyridazinacycloundecaphane-4-yl)-2,3-dimethylcyclopropane-1-carboxamide formate]	–	–	–	–	–	0.42 nM	0.43 nM	0.31 nM	0.4 nM
(1S,2R,3S)—N-((6^3S,4S,Z)—(Ra)-1^2-(5-(2-(4-oxa-7-azaspiro[2,5]octan-7-yl)ethoxy)-2-((S)-1-methoxyethyl)pyridin-3-yl)-11-ethyl-10,10-dimethyl-5,7-dioxo-6^1,6^2,6^3,6^4,6^5,6^6-hexahydro-1^1H-8-oxa-2(4,2)-thiazola-1(5,3)-indola-6(1,3)- pyridazinacycloundecaphane-4-yl)-2-methyl-3-(pyrimidin-4-yl)cyclopropane-1-carboxamide [Compound Z661-1]	–	–	–	–	–	93 nM	97.2 nM	37.7 nM	42.6 nM
